# US8486953B2, “Thienopyrimidines for pharmaceutical compositions” (Boehringer Ingelheim International GmbH, priority 2008, dated 2013)
# How the values were obtained:
# [1] = tested on: Mnk2 (Mnk2a or Mnk2b) or Mnk1; details: cell culture cells transfected with Mnk2 (Mnk2a or Mnk2b) or Mnk1; cited from earlier work
# human Mnk1 = human Mnk1 (Homo sapiens (Human), UniProt Q9BUB5); experiment: Mnk1 in vitro kinase assay (indirect fluorescence polarization); assay type: biochemical
# Experimental: (§1) Inhibitory potency of compounds against Mnk1, Mnk2a and other kinases was assessed with assays based on a format known to those skilled in the art as the indirect (competitive) fluorescence polarization. The assay detection system comprises a small fluorophore-labeled phospho-peptide (termed ligand) bound to a phospho-specific antibody. The product generated by the kinase reaction competes with the ligand for antibody binding. Based on the larger molecular volume of the bound ligand, which results in a lower rotation rate in solution, its emitted light has a higher degree of polarization than the one from the free ligand.
# (§2) In brief, the open reading frames of human Mnk1 and Mnk2a were amplified from cDNA using the forward/reverse primer pairs
# (§3) (utilized restriction sites underlined), respectively, and cloned into the BamHI and SalI sites of the vector pGEX-4T1 (Amersham, Sweden, cat. no. 27-4580-01). These constructs allow prokaryotic expression of Mnk1 or Mnk2a as fusion protein with a N-terminal glutathione S-transferase (GST) tag, referred to as GST-Mnk1 or GST-Mnk2a. The following expression and purification procedure was identical for GST-Mnk1 and GST-Mnk2a, referring in general to GST-Mnk, when not distinguishing between the two isoforms. Expression of GST-Mnk was in E. coli BL21 (Merck Biosciences, Germany, cat. no. 69449). Cells were grown in LB-Bouillon (Merck, Germany, cat. no. 1.10285) supplemented with 100 μg/ml ampicillin (Sigma, Germany, cat. no. A9518) at 37° C. When the culture had reached a density corresponding to an A600 of 0.8, an equal volume of ice cold LB/ampicillin was added, the culture transferred to 25° C. and induced for 4 h with 1 mM isopropyl thiogalactoside (IPTG, Roth, Germany, cat. no. 2316.4). Cells harvested by centrifugation were resuspended in 10 ml lysis buffer (50 mM tris(hydroxymethyl)aminomethane hydrochloride (Tris/HCl, Sigma, Germany, cat. no. T5941) pH 7.5, 300 mM sodium chloride (NaCl, Sigma, Germany, cat. no. S7653), 5% (w/v) glycerol (Sigma, Germany, cat. no. G5516), 3 mM DTT dithiotreitol (DTT, Sigma, Germany, cat. no. D9779)) per gram wet weight cell pellet. Lysates were prepared by disruption of cells with a sonifier and subsequent clearing by centrifugation at 38000 g for 45 min at 4° C.
# (§4) The lysate was applied to a GSTPrep FF 16/10 column (Amersham, Sweden, cat. no. 17-5234-01) equilibrated with lysis buffer. Removal of unbound material was with 3 column volumes (CV) lysis buffer. Elution was with 2 CV of elution buffer (50 mM Tris/HCl pH 7.5, 300 mM NaCl, 5% (w/v) glycerol, 20 mM glutathione (Sigma, Germany, cat. no. G4251)). Peak fractions were pooled and the protein transferred into storage buffer (50 mM Tris/HCl pH 7.5, 200 mM NaCl, 0.1 mM ethylene glycol-bis(2-aminoethylether)-N,N,N′,N′-tetraacetic acid (EGTA, Aldrich, Germany, cat. no. 23, 453-2), 1 mM DTT, 10% (w/v) glycerol, 0.5 M sucrose (Sigma, Germany, cat. no. SO389) by gel filtration on a PD10 desalting column (Amersham, Sweden, cat. no. 17-0851-01). Aliquots were shock frozen in liquid nitrogen and stored at −80° C.
# (§5) Activation of Mnk1 and Mnk2a was at a concentration of 2.5 μM of either purified GST-Mnk1 or GST-Mnk2a by incubation with 150 nM pre-activated NHis-ERK2 (see ERK2 assay for preparation) and 50 μM adenosine triphosphate (ATP, Sigma, cat. no. A2699) in a buffer comprising 20 mM N-(2-hydroxyethyl)piperazine-N′-(2-ethanesulfonic acid) (HEPES, Fluka, Germany, cat. no 54459)/potassium hydroxide (KOH, Roth, Germany, cat. no 6751.1) pH 7.4, 10 mM magnesium chloride (MgCl2, Sigma, Germany, cat. no. M2670), 0.25 mM DTT, 0.05% (w/v) polyoxyethylene 20 stearylether (Brij 78, Sigma, Germany, cat. no. P4019) (HMDB buffer) for 45 min at 30° C.
# human Mnk2a = human Mnk2a (Homo sapiens (Human), UniProt Q9HBH9); experiment: Mnk2a in vitro kinase assay (indirect fluorescence polarization); assay type: biochemical
# Experimental: as §1, §2, §3, §4, §5
# human Mnk2a, sequence (Q9HBH9 whole entry): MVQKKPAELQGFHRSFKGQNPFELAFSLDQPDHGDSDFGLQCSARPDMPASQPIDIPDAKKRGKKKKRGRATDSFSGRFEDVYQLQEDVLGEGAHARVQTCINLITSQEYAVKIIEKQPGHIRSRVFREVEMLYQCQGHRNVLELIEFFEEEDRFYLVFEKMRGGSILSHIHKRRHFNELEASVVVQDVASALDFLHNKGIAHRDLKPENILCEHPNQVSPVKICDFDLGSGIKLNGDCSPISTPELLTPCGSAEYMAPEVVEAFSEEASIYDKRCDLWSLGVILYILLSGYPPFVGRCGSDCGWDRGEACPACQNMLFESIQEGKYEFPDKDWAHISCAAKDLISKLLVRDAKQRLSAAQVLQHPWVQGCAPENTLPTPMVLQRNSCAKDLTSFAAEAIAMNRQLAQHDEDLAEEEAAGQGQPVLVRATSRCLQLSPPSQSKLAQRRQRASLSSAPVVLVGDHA
# human Mnk1, sequence (Q9BUB5 other isoform, or with tags, fused parts or gaps): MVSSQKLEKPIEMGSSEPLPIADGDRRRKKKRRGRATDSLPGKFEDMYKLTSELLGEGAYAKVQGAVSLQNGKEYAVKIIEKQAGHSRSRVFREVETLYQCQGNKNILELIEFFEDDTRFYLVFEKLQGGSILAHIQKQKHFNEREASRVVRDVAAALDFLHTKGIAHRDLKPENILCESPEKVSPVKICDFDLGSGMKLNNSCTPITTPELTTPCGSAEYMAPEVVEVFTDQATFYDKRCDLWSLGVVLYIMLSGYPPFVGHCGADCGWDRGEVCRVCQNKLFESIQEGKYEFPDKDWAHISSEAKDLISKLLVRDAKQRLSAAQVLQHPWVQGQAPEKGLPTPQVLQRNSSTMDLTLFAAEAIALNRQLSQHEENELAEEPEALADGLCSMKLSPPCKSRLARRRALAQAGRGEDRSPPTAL
IC50 (human Mnk1) [µM],IC50 (human Mnk2a) [µM],Structure (SMILES),reduction of phosphorylated eIF4E [1]
,,Nc1ncnc2n[nH]c(Nc3ccc(F)cc3)c12 [CGP57380],strong reduction
0.12,0.028,"CCOc1cc(C(N)=O)ccc1Nc1ncnc2sc(C(N)=O)c(C)c12 [Example 2, 4-(4-Carbamoyl-2-ethoxyphenylamino)-5-methylthieno[2,3-d]pyrimidine-6-carboxamide]",
0.18,0.035,"COCCNC(=O)c1sc2ncnc(Nc3ccc(F)cc3OC3CCOCC3)c2c1C [Example 6, 4-(4-Fluoro-2-(tetrahydro-2H-pyran-4-yloxy)phenylamino)-N-(2-methoxyethyl)-5-methylthieno[2,3-d]pyrimidine-6-carboxamide]",
0.1,0.027,"Cc1c(C(=O)NCCCN(C)C)sc2ncnc(Nc3ccc(F)cc3OC3CCOCC3)c12 [Example 9, N-(3-(Dimethylamino)propyl)-4-(4-fluoro-2-(tetrahydro-2H-pyran-4-yloxy)phenyl-amino)-5-methylthieno[2,3-d]pyrimidine-6-carboxamide]",
0.21,0.034,"Cc1c(C(=O)NCCN2CCOCC2)sc2ncnc(Nc3ccc(F)cc3OC3CCOCC3)c12 [Example 10, 4-(4-Fluoro-2-(tetrahydro-2H-pyran-4-yloxy)phenylamino)-5-methyl-N-(2-morpholinoethyl)thieno[2,3-d]pyrimidine-6-carboxamide]",
0.68,0.56,"Cc1c(C(=O)NCCCN(C)C)sc2ncnc(Nc3ccc(C(F)(F)F)nc3OC3CCOCC3)c12 [Example 34, 4-(2-(Tetrahydro-2H-pyran-4-yloxy)-6-(trifluoromethyl)pyridin-3-ylamino)-N-(3-(dimethylamino)propyl)-5-methylthieno[2,3-d]pyrimidine-6-carboxamide]",
0.21,0.11,"Fc1ccc(Nc2ncnc3sc4c(c23)CCNC4)c(OC2CCOCC2)c1 [Example 41, [4-fluoro-2-(tetrahydro-2H-pyran-4-yloxy)-phenyl]-(5,6,7,8-tetrahydro-pyrido[4′,3′:4,5]thieno[2,3-d]pyrimidin-4-yl)-amine]",
0.46,0.092,"Cc1c(C(N)=O)sc2ncnc(Nc3ccc(F)cc3OC3CCN(Cc4ncon4)CC3)c12 [Example 48, 4-(2-(1-((1,2,4-Oxadiazol-3-yl)methyl)piperidin-4-yloxy)-4-fluorophenylamino)-5-methylthieno[2,3-d]pyrimidine-6-carboxamide]",
0.035,0.006,"Cc1c(C(=O)NCCCN(C)C)sc2ncnc(Nc3ccc(F)cc3OC(C)C)c12 [Example 53, N-(3-(Dimethylamino)propyl)-4-(4-fluoro-2-iso-propoxyphenylamino)-5-methylthieno[2,3-d]pyrimidine-6-carboxamide]",
